From patent EP0938474B1, “CYCLOPROPYLINDOLE COMPOUNDS AND THEIR USE AS PRODRUGS” (AUCKLAND UNISERVICES LIMITED, priority 1996, dated 1998)

Key:
[1] = test system: WC14.10; assay: Cytotoxicity in cells transfected with bacterial nitroreductase (NR+); assay type: cell-based; settings: Homo sapiens; WC14.10 (NR+ transfected counterpart of WIDR); IC50, unit inferred; read-out: Human colon lines NR+
From the text: (§1) Compounds of the invention were further tested against human cell lines (NR+ in Table 3) transfected with a gene encoding a bacterial nitroreductase (NR) enzyme to test for activation of compounds of the invention with NR. Untransfected control cells (NR- in Table 3) were used as controls. The cells used were the human colon NR-(wild-type) line WIDR and its transfected NR+ counterpart WC14.10; and the human ovarian NR- (wild-type) line SKOV3 together with its NR+ (transfected) counterpart SC3.2. The results are shown in Table 3, which also indicates the ratios of IC50s. These are intra-experiment values, and may differ slightly from those calculated from the given NR- and NR+ values.

[2] = test system: SC3.2; assay: as above; assay type: cell-based; settings: Homo sapiens, SK-OV-3; SC3.2 (NR+ transfected counterpart of SKOV3); IC50, unit inferred; read-out: Human ovarian lines NR+
From the text: as §1

[3] = test system: human colon NR-(wild-type) line WIDR; assay: Cytotoxicity in untransfected control cells (NR-), nitroreductase activation test; assay type: cell-based; settings: IC50, unit inferred, read-out: Human colon lines NR-
From the text: as §1

[4] = test system: human ovarian NR- (wild-type) line SKOV3; assay: as above; assay type: cell-based; settings: SK-OV-3, IC50, unit inferred, read-out: Human ovarian lines NR-
From the text: as §1

[5] = test system: EMT6; assay: Cytotoxicity (growth inhibition), 4 h drug exposure, methylene blue staining; assay type: cell-based; settings: Mus musculus; EMT6 rodent line; 4 hours exposure, then three days incubation
Experimental: (§2) Compounds of the invention were tested for cytotoxicity against four different cell lines, all of which are widely available in the art. AA8 is a wild type rodent cell line. UV4 is a mutant AA8 cell line defective in excision repair, and hypersensitive to many alkylating agents. EMT6 is a widely-used rodent line. SKOV is a human ovarian cell line.
(§3) Cell culture assays were performed in 96-well microtitre trays. Compounds of the invention were added in culture medium, using serial two-fold dilutions to provide duplicate cultures at five different concentrations for each of eight drugs (plus eight controls) per tray. Drugs were dissolved in water or DMSO immediately prior to addition to the cell culture. After 4 hours, drugs were removed by washing cultures three times with fresh medium, and the trays were incubated for a futher three days. Cell density was then determined by staining with methylene blue as described previously (Finlay, G. J., et al, Anal. Biochm. 1984, 139, 272-277) and the IC50 was calculated as the drug concentration providing 50% inhibition of growth relative to the controls.

[6] = test system: AA8; assay: as above; assay type: cell-based; settings: Cricetulus griseus, CHO-AA8; AA8 wild type rodent cell line; 4 hours exposure, then three days incubation
Experimental: as §2, §3

[7] = test system: SKOV3; assay: as above; assay type: cell-based; settings: SK-OV-3; human ovarian cell line; 4 hours exposure, then three days incubation
Experimental: as §2, §3

[8] = test system: UV4; assay: as above; assay type: cell-based, rodent; settings: Cricetulus griseus; UV4 mutant AA8 line defective in excision repair; 4 hours exposure, then three days incubation
Experimental: as §2, §3

Work on `COc1cc2cc(C(=O)N3CC(COS(C)(=O)=O)c4c3cc([N+](=O)[O-])c3ccccc43)[nH]c2c(OC)c1OC` (stereo not drawn) [14o, 1-[(methanesulfonyloxy)methyl]-5-nitro-3-[(5,6,7-trimethoxyindol-2-yl)carbonyl]-1,2-dihydro-3H-benz[e]indole] yielded an IC50 [1] of 60 nM, an IC50 [2] of 50 nM and an IC50 [3] of 410 nM. The IC50 [4] was 410 nM.

For `CN(C)CCOc1ccc2[nH]c(C(=O)N3CC(CCl)c4c3cc([N+](=O)[O-])c3ccccc43)cc2c1` (stereo not drawn) [14e, 1-(chloromethyl)-3-[[5-[2-(dimethylamino)-ethoxy]indol-2-yl]carbonyl] -5-nitro-1,2-dihydro-3H-benz [e] indole], the IC50 [1] was 130 nM, the IC50 [2] was 90 nM and the IC50 [3] was 370 nM. For the same compound, the IC50 [4] was 1000 nM.

For `COc1cc2cc(C(=O)N3C[C@H](CCl)c4c3cc([N+](=O)[O-])c3ccccc43)[nH]c2c(OC)c1OC` [14aR], the IC50 [1] was > 20000 nM, the IC50 [2] was 300 nM and the IC50 [3] was > 20000 nM. For the same compound, the IC50 [4] was > 20000 nM.

Work on `COc1cc2cc(C(=O)N3C[C@@H](CCl)c4c3cc([N+](=O)[O-])c3ccccc43)[nH]c2c(OC)c1OC` [14aS] yielded an IC50 [1] of 90 nM, an IC50 [2] of 40 nM and an IC50 [3] of 350 nM. The IC50 [4] was 400 nM.

For `COc1cc2cc(C(=O)N3CC(COS(C)(=O)=O)c4c3cc(N)c3ccccc43)[nH]c2c(OC)c1OC` (stereo not drawn) [15o, 5-amino-1-[(methanesulfonyloxy)methyl]-3-[(5,6,7-trimethoxyindol-2-yl)carbonyl]-1,2-dihydro-3H-benz[e]indole], the IC50 [5] was 233 nM, the IC50 [6] was 660 nM and the IC50 [7] was 1330 nM.

`CC(=O)Nc1ccc2[nH]c(C(=O)N3CC(CCl)c4c3cc(N)c3ccccc43)cc2c1` (stereo not drawn) [15c, 3-[[5-(acetylamino)indol-2-yl]carbonyl]-5-amino-1-(chloromethyl)-1,2-dihydro-3H-benz[e]indole] gave an IC50 [8] of 7.6 nM, an IC50 [5] of 5.2 nM and an IC50 [6] of 12.5 nM. The IC50 [7] was 18 nM.

In the case of `COc1cc2cc(C(=O)N3CC(CCl)c4c3cc(N(C)C)c3ccccc43)[nH]c2c(OC)c1OC` (stereo not drawn) [15q, 1-(chloromethyl)-5-dimethylamino-3-[(5,6,7-trimethoxy-indol-2-yl)carbonyl]-1,2-dihydro-3H-benz [e] indole], the IC50 [8] is reported as 3.7 nM, the IC50 [5] is reported as 3.8 nM and the IC50 [6] is reported as 5.6 nM. For the same compound, the IC50 [7] was 16 nM.

For `COc1cc2cc(C(=O)N3CC(CCl)c4c3cc(N)c3ccccc43)[nH]c2c(OC)c1OC` (stereo not drawn) [15a, 5-amino-1-(chloromethyl)-3-[(5,6,7-trimethoxyindol-2-yl)carbonyl]-1,2-dihydro-3H-benz [e] indole], the IC50 [8] was 0.28 nM, the IC50 [5] was 0.27 nM and the IC50 [6] was 0.45 nM. The IC50 [7] was 1 nM.

`CN(C)CCOc1ccc2[nH]c(C(=O)N3CC(CCl)c4c3cc(N)c3ccccc43)cc2c1` (stereo not drawn) [15e, 5-amino-1-(chloromethyl)-3-[[5-[2-(dimethylamino)ethoxy]indol-2-yl]carbonyl]-1,2-dihydro-3H-benz [e] indole] gave an IC50 [8] of 1.4 nM, an IC50 [5] of 0.9 nM and an IC50 [6] of 3.5 nM. It also gave an IC50 [7] of 6.4 nM.

`COc1ccc2[nH]c(C(=O)N3CC(CCl)c4c3cc([N+](=O)[O-])c3ccccc43)cc2c1` (stereo not drawn) [14d, 1-(chloromethyl)-3-[(5-methoxyindol-2-yl)carbonyl]-5-nitro-1,2-dihydro-3H-benz[e]indole] was tested, and the IC50 [1] was 290 nM, the IC50 [2] was 150 nM and the IC50 [3] was 740 nM. The IC50 [4] was 580 nM.

Compound `Nc1ccc2[nH]c(C(=O)N3CC(CCl)c4c3cc(N)c3ccccc43)cc2c1` (stereo not drawn) [15b, 5-amino-3-[(5-aminoindol-2-yl)carbonyl]-1-(chloromethyl)-1,2-dihydro-3H-benz [e] indole] has an IC50 [8] of 1 nM, an IC50 [5] of 0.8 nM and an IC50 [6] of 2.4 nM. For the same compound, the IC50 [7] was 3 nM.

`CNc1cc2c(c3ccccc13)C(CCl)CN2C(=O)c1cc2cc(OC)c(OC)c(OC)c2[nH]1` (stereo not drawn) [15p, 1-(chloromethyl)-5-methylamino-3-[(5,6,7-trimethoxyindol-2-yl)carbonyl]-1,2-dihydro-3H-benz[e]indole] gave an IC50 [8] of 0.1 nM, an IC50 [5] of 0.1 nM and an IC50 [6] of 0.1 nM. The IC50 [7] was 0.3 nM.

`COc1cccc(/C=C/C(=O)N2CC(CCl)c3c2cc(N)c2ccccc32)c1` (stereo not drawn) [15l, 5-amino-1-(chloromethyl)-3-[(E)-3-methoxycinnamoyl]-1,2-dihydro-3H-benz[e]indole] showed an IC50 [8] of 0.4 nM, an IC50 [5] of 0.2 nM and an IC50 [6] of 0.3 nM. It also gave an IC50 [7] of 0.6 nM.

`CNc1cc2c(c3cc(C(=O)OC)[nH]c13)C(CCl)CN2C(=O)c1cc2cc(OC)c(OC)c(OC)c2[nH]1` (stereo not drawn) [32b, methyl 1-(chloromethyl)-5-methylamino-3-[(5,6,7-trimethoxyindol-2-yl)carbanyl]-1,2-dihydro-3H-pyrrolo[3,2-e]indole-7-carboxylate] showed an IC50 [8] of 0.7 nM, an IC50 [5] of 0.8 nM and an IC50 [6] of 2.4 nM. It also gave an IC50 [7] of 1.9 nM.

With `CC(=O)Nc1ccc2[nH]c(C(=O)N3CC(CCl)c4c3cc([N+](=O)[O-])c3ccccc43)cc2c1` (stereo not drawn) [14c, 3-[[5-(acetylamino)indol-2-yl]carbonyl]-1-(chloromethyl)-5-nitro-1,2-dihydro-3H-benz[e]indole] the IC50 [1] was 360 nM, the IC50 [2] was 250 nM and the IC50 [3] was 1600 nM. It also gave an IC50 [4] of 4300 nM.

In the case of `CCCC(=O)Nc1cc(/C=C/C(=O)N2CC(CCl)c3c2cc(N)c2ccccc32)n(C)c1` (stereo not drawn) [15i], the IC50 [8] is reported as 16 nM, the IC50 [5] is reported as 5.9 nM and the IC50 [6] is reported as 31 nM. The IC50 [7] was 22 nM.

Work on `O=C(c1cc2cc([N+](=O)[O-])ccc2[nH]1)N1CC(CCl)c2c1cc([N+](=O)[O-])c1ccccc21` (stereo not drawn) [14b, 1-(chloromethyl)-5-nitro-3-[(5-nitroindol-2-yl)carbonyl]-1,2-dihydro-3H-benz[e]indole] yielded an IC50 [1] of 210 nM, an IC50 [2] of 390 nM and an IC50 [3] of 390 nM. The IC50 [4] was 400 nM.

Work on `COc1cc2cc(C(=O)N3C[C@H](CCl)c4c3cc(N)c3ccccc43)[nH]c2c(OC)c1OC` [15aR, (R)-5-amino-1-(chloromethyl)-3-[(5,6,7-trimethoxyindol-,2-yl)carbonyl]-1,2-dihydro-3H-benz[e]indole] yielded an IC50 [8] of 2.6 nM, an IC50 [5] of 7 nM and an IC50 [6] of 13.6 nM. The IC50 [7] was 7.8 nM.

Compound `COC(=O)c1cc2c3c(cc(N(C)C)c2[nH]1)N(C(=O)c1cc2cc(OC)c(OC)c(OC)c2[nH]1)CC3CCl` (stereo not drawn) [32c, methyl 1-(chloromethyl)-5-dimethylamino-3-[(5,6,7-trimethoxyindol-2-yl)carbonyl]-1,2-dihydro-3H-pyrrolo[3,2-e]indole-7-carboxylate] has an IC50 [8] of 3.3 nM, an IC50 [5] of 5.2 nM and an IC50 [6] of 12 nM. The IC50 [7] was 12 nM.

In the case of `COC(=O)c1cc2c3c(cc(N)c2[nH]1)N(C(=O)c1cc2cc(OC)c(OC)c(OC)c2[nH]1)CC3CCl` (stereo not drawn) [32a, methyl 5-amino-1-(chloromethyl)-3-[(5,6,7-trimethoxyindol-2-yl)carbonyl]-1,2-dihydro-3H-pyrrolo[3,2-e]indole-7-carboxylate], the IC50 [8] is reported as 1.7 nM, the IC50 [5] is reported as 5.6 nM and the IC50 [6] is reported as 17 nM. For the same compound, the IC50 [7] was 14 nM.

`COc1ccc2[nH]c(C(=O)N3CC(CCl)c4c3cc(N)c3ccccc43)cc2c1` (stereo not drawn) [15d, 5-amino-1-(chloromethyl)-3-[(5-methoxyindol-2-yl)carbonyl]-1,2-dihydro-3H-benz[e] indole] showed an IC50 [8] of 0.8 nM, an IC50 [5] of 0.9 nM and an IC50 [6] of 1.2 nM. It also gave an IC50 [7] of 1.8 nM.

`COc1cc2cc(C(=O)N3C[C@@H](CCl)c4c3cc(N)c3ccccc43)[nH]c2c(OC)c1OC` [15aS, (S)-5-amino-1-(chloromethyl)-3-[(5,6,7-trimethoxyindol-2-yl)carbonyl]-1,2-dihydro-3H-benz[e]indole] gave an IC50 [8] of 0.1 nM, an IC50 [5] of 0.1 nM and an IC50 [6] of 0.2 nM. The IC50 [7] was 0.5 nM.
